Numbered stars: 1 amine (or outer) side, 2 acyl side, 3 side chain; on linkers, the order of the positions; unused ones are H or OH. Bridge positions count the residues as written; N and C are the ends. Square brackets hold non-standard residues; d marks the D form. Peptide text beside a SMILES is read from it. * marks the point of attachment. Tartaroyl(2R,3R-(OAc)2) = CC(=O)O[C@@H](C(=O)[*:1])[C@@H](OC(C)=O)C(=O)[*:2]; Phe(4-CF3) = N[C@@H](Cc1ccc(C(F)(F)F)cc1)C(=O)O; Phe(4-COOH) = N[C@@H](Cc1ccc(C(=O)O)cc1)C(=O)O; Bip = N[C@@H](Cc1ccc(-c2ccccc2)cc1)C(=O)O; dPhe(4-NH2) = Nc1ccc(C[C@@H](N)C(=O)O)cc1; Nip(3R) = O=C([C@@H]1CCCN([*:1])C1)[*:2]; Phe(4-Br) = N[C@@H](Cc1ccc(Br)cc1)C(=O)O; Phe(4-NH2) = Nc1ccc(C[C@H](N)C(=O)O)cc1; dAla(2-furyl) = N[C@H](Cc1ccco1)C(=O)O; d2Nal = N[C@H](Cc1ccc2ccccc2c1)C(=O)O; d(hPhe) = N[C@H](CCc1ccccc1)C(=O)O; d2Thi = N[C@H](Cc1cccs1)C(=O)O; Suc = O=C(CCC(=O)[*:2])[*:1]; NHCH2SO3H = O=S(=O)(O)CN*; Ac3c = NC1(C(=O)O)CC1; Bn = c1ccc(C*)cc1; GABA = NCCCC(=O)O; βAla = NCCC(=O)O
molecular target: T1, TNFα / TNFα receptor (TNFα R1/Fc) (Homo sapiens, UniProt P01375); test: Inhibition of binding of TNFα to the TNFα receptor (plate ELISA competition); conditions: Activity (IC50, inhibition of TNFα binding to TNFα R1/Fc), Table 2
T1 construct: purchased R&D Systems
In short: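 Plates were coated with TNFα at 15 nM. Test compound and 8.33 nM receptor-Fc (PBST, 2% DMSO) were first mixed in solution for 30 min at room temperature, then transferred to the plates for another 30 min. Competition was read by absorbance at 450 nm after HRP anti-human IgG Fc detection with TMB.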

T1 sequence (P01375 77-233 limits assumed, species assumed): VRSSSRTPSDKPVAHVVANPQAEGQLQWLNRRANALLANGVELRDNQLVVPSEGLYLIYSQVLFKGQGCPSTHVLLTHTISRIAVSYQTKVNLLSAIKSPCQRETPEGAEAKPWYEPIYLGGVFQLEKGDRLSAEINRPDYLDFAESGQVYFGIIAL

SMILES | IC50 [µM]
O=C1COc2ccc(cc2)C[C@@H](C(=O)N[C@H](CCc2ccccc2)C(=O)O)NC(=O)[C@H](Cc2c[nH]c3ccccc23)NC(=O)[C@@H](Cc2ccc(-c3ccccc3)cc2)NC(=O)[C@H](Cc2ccncc2)N1 [Compound 745] | 10 to 30

same assay, conditions: Table 2; read-out: Activity (IC50, inhibition of TNFα binding to TNFα R1/Fc)

SMILES | IC50 [µM]
N=C(N)NCCC[C@@H]1NC(=O)[C@H](Cc2ccc(-c3ccccc3)cc2)NC(=O)[C@@H](Cc2cccs2)NC(=O)CCC(=O)Nc2ccc(cc2)C[C@@H](C(=O)O)NC1=O [Compound 72] ([d2Thi][Bip]R[Phe(4-NH2)]-OH; linker N-4 via Suc) | > 100
CN(C)C(=O)[C@@H]1Cc2ccc(cc2)NC(=O)CCC(=O)N[C@H](CCc2ccccc2)C(=O)N[C@@H](Cc2ccc(-c3ccccc3)cc2)C(=O)N[C@H](Cc2ccccc2)C(=O)N1 [Compound 370] ([d(hPhe)][Bip][dF][Phe(4-NH2)]-NMe2; linker N-4 via Suc) | > 100
CC(=O)O[C@H]1C(=O)Nc2ccc(cc2)C[C@H](C(=O)O)NC(=O)[C@@H](Cc2ccccc2)NC(=O)[C@H](Cc2ccc(-c3ccccc3)cc2)NC(=O)[C@@H](Cc2ccccc2)NC(=O)[C@@H]1OC(C)=O [Compound 222] ([dF][Bip][dF][dPhe(4-NH2)]-OH; linker N-4 via Tartaroyl(2R,3R-(OAc)2)) | > 100
O=C1COc2ccc(cc2)C[C@@H](C(=O)O)NC(=O)[C@H](Cc2ccccc2)NC(=O)[C@H](Cc2ccc(-c3ccc(Cl)cc3)cc2)NC(=O)[C@H](Cc2cccs2)N1 [Compound 365] | 30 to 100
CC(=O)O[C@H]1C(=O)Nc2ccc(cc2)C[C@@H](C(=O)O)NC(=O)[C@@H](CCc2ccccc2)NC(=O)[C@H](Cc2ccc(-c3ccccc3)cc2)NC(=O)[C@@H](Cc2ccccc2)NC(=O)[C@@H]1OC(C)=O [Compound 235] ([dF][Bip][d(hPhe)][Phe(4-NH2)]-OH; linker N-4 via Tartaroyl(2R,3R-(OAc)2)) | 10 to 30
O=C1COc2ccc(cc2)C[C@@H](C(=O)O)NC(=O)[C@@H](Cc2ccccc2)NC(=O)[C@H](Cc2ccc(C(F)(F)F)cc2)NC(=O)[C@@H](CCc2ccccc2)N1 [Compound 216] | > 100
O=C1CCC(=O)N[C@H](Cc2cccs2)C(=O)N[C@@H](Cc2ccc(-c3ccccc3)cc2)C(=O)N[C@@H](Cc2ccccc2)C(=O)N[C@@H](C(=O)O)Cc2ccc(cc2)N1 [Compound 497] ([d2Thi][Bip]F[dPhe(4-NH2)]-OH; linker N-4 via Suc) | > 100
O=C1CCC(=O)N[C@H](CCc2ccccc2)C(=O)N[C@@H](Cc2ccc(C(F)(F)F)cc2)C(=O)N[C@H](Cc2ccccc2)C(=O)N[C@H](C(=O)O)Cc2ccc(cc2)N1 [Compound 2] ([d(hPhe)][Phe(4-CF3)][dF][Phe(4-NH2)]-OH; linker N-4 via Suc) | > 100
O=C1COc2ccc(cc2)C[C@@H](C(=O)O)NC(=O)[C@@H](Cc2ccccc2)NC(=O)[C@H](Cc2ccc(-c3ccccc3)cc2)NC(=O)[C@H](Cc2cccs2)N1 [Compound 215] | 30 to 100
O=C1CCC(=O)N[C@H](CCc2ccccc2)C(=O)N[C@@H](Cc2ccc(C(F)(F)F)cc2)C(=O)N[C@H](Cc2ccccc2)C(=O)N[C@@H](C(=O)NC2(C(=O)O)CC2)Cc2ccc(cc2)N1 [Compound 17] ([d(hPhe)][Phe(4-CF3)][dF][dPhe(4-NH2)][Ac3c]-OH; linker N-4 via Suc) | 10 to 30
NCCCC[C@H](NC(=O)[C@@H]1Cc2ccc(cc2)NC(=O)CCC(=O)N[C@H](CCc2ccccc2)C(=O)N[C@@H](Cc2ccc(-c3ccccc3)cc2)C(=O)N[C@H](Cc2ccccc2)C(=O)N1)C(=O)O [Compound 295] ([d(hPhe)][Bip][dF][Phe(4-NH2)]K-OH; linker N-4 via Suc) | 10 to 30
O=C1CCC(=O)N[C@H](Cc2cccs2)C(=O)N[C@@H](Cc2ccc(-c3ccccc3)cc2)C(=O)N[C@H](Cc2ccccc2)C(=O)N[C@H](C(=O)N2CCC[C@@H]2C(=O)O)Cc2ccc(cc2)N1 [Compound 200] ([d2Thi][Bip][dF][Phe(4-NH2)][dP]-OH; linker N-4 via Suc) | 30 to 100
O=C1CCC(=O)N[C@H](Cc2cccs2)C(=O)N[C@@H](Cc2ccc(OCc3ccccc3)cc2)C(=O)N[C@H](Cc2ccccc2)C(=O)N[C@H](C(=O)O)Cc2ccc(cc2)N1 [Compound 92] ([d2Thi]Y(Bn)[dF][Phe(4-NH2)]-OH; linker N-4 via Suc) | 30 to 100
CC(=O)O[C@H]1C(=O)Nc2ccc(cc2)C[C@H](C(=O)O)NC(=O)[C@@H](Cc2ccco2)NC(=O)[C@H](Cc2ccc(Br)cc2)NC(=O)[C@@H](Cc2cccs2)NC(=O)[C@@H]1OC(C)=O [Compound 154] ([d2Thi][Phe(4-Br)][dAla(2-furyl)][dPhe(4-NH2)]-OH; linker N-4 via Tartaroyl(2R,3R-(OAc)2)) | > 100
O=C1CCC(=O)N[C@H](Cc2ccc3ccccc3c2)C(=O)N[C@@H](Cc2ccc(C(F)(F)F)cc2)C(=O)N[C@H](Cc2ccccc2)C(=O)N[C@H](C(=O)O)Cc2ccc(cc2)N1 [Compound 143] ([d2Nal][Phe(4-CF3)][dF][Phe(4-NH2)]-OH; linker N-4 via Suc) | > 100
O=C(O)[C@@H]1Cc2ccc(cc2)NC(=O)[C@H](O)[C@@H](O)C(=O)N[C@H](Cc2ccc(C(F)(F)F)cc2)C(=O)N[C@@H](Cc2ccc(-c3ccccc3)cc2)C(=O)N[C@H](Cc2ccccc2)C(=O)N1 [Compound 263] | > 100
O=C1CCC(=O)N[C@H](Cc2ccccc2)C(=O)N[C@@H](Cc2ccc(Br)cc2)C(=O)N[C@H](Cc2ccco2)C(=O)N[C@@H](C(=O)O)Cc2ccc(cc2)N1 [Compound 153] ([dF][Phe(4-Br)][dAla(2-furyl)][dPhe(4-NH2)]-OH; linker N-4 via Suc) | > 100
O=C1N[C@H](CCc2ccccc2)C(=O)N[C@@H](C(=O)O)Cc2ccc(cc2)NC(=O)[C@H](O)[C@@H](O)C(=O)N[C@H](Cc2cccs2)C(=O)N[C@H]1Cc1ccc(Cl)cc1Cl [Compound 240] | 10 to 30
O=C1CCC(=O)N[C@H](Cc2cccs2)C(=O)N[C@@H](Cc2ccc(-c3ccccc3)cc2)C(=O)N[C@H](Cc2ccccc2)C(=O)N[C@H](C(=O)N2CCC[C@@H](C(=O)O)C2)Cc2ccc(cc2)N1 [Compound 38] ([d2Thi][Bip][dF][Phe(4-NH2)]-{Nip(3R)}; linker N-4 via Suc) | 30 to 100
Cc1ccc(S(=O)(=O)NCCNC(=O)[C@@H]2Cc3ccc(cc3)OCC(=O)N[C@@H](Cc3cccs3)C(=O)N[C@H](Cc3ccc(-c4ccccc4)cc3)C(=O)N[C@@H](CCc3ccccc3)C(=O)N2)cc1 [Compound 484] | > 100

Next, values leading:

IC50 [µM] | SMILES
10 to 30 | N#Cc1cccc(C[C@H]2NC(=O)[C@H](O)[C@@H](O)C(=O)Nc3ccc(cc3)C[C@@H](C(=O)O)NC(=O)[C@@H](Cc3ccccc3)NC(=O)[C@H](Cc3ccc(-c4ccccc4)cc3)NC2=O)c1 [Compound 316]
< 10 | O=C1COc2ccc(cc2)C[C@@H](C(=O)O)NC(=O)[C@H](CCc2ccccc2)NC(=O)[C@@H](Cc2ccc(-c3ccccc3)cc2)NC(=O)[C@H](Cc2cccc3ccccc23)N1 [Compound 694]
< 10 | CN1C(=O)COc2ccc(cc2)C[C@@H](C(=O)N[C@H](CCc2ccccc2)C(=O)O)NC(=O)[C@H](Cc2c[nH]c3ccccc23)NC(=O)[C@@H](Cc2ccc(-c3ccccc3)cc2)NC(=O)[C@@H]1Cc1c[nH]c2ccccc12 [Compound 747]
< 10 | O=C1COc2ccc(cc2)C[C@@H](C(=O)O)NC(=O)[C@H](Cc2ccc(-c3cccnc3)cc2)NC(=O)[C@@H](Cc2ccc(-c3ccccc3)cc2)NC(=O)[C@H](Cc2cccs2)N1 [Compound 633]
< 10 | C[C@H](NC(=O)[C@@H]1Cc2ccc(cc2)OCC(=O)N[C@@H](Cc2ccc(-c3ccccc3)cc2)C(=O)N[C@H](Cc2ccc(-c3ccccc3)cc2)C(=O)N[C@@H](CCc2ccccc2)C(=O)N1)C(=O)O [Compound 572]
< 10 | O=C(O)CCCNC(=O)[C@@H]1Cc2ccc(cc2)C(=O)NCCC(=O)N[C@H](CCc2ccccc2)C(=O)N[C@@H](Cc2ccc(-c3ccccc3)cc2)C(=O)N[C@H](Cc2ccccc2)C(=O)N1 [Compound 421] ([βAla][d(hPhe)][Bip][dF][Phe(4-COOH)][GABA]-OH; lactam N-5)
< 10 | O=C(O)CCCNC(=O)[C@@H]1Cc2ccc(cc2)OCC(=O)N[C@@H](Cc2c[nH]c3ccccc23)C(=O)N[C@H](Cc2ccc(-c3ccccc3)cc2)C(=O)N[C@@H](Cc2c[nH]c3ccccc23)C(=O)N1 [Compound 721]
< 10 | COC(=O)[C@@H]1Cc2ccc(cc2)NC(=O)CCC(=O)N[C@H](Cc2cccs2)C(=O)N[C@@H](Cc2ccc(-c3ccccc3)cc2)C(=O)N[C@H](Cc2ccccc2)C(=O)N1 [Compound 192] ([d2Thi][Bip][dF][Phe(4-NH2)]-OMe; linker N-4 via Suc)
< 10 | O=C1CCC(=O)N[C@H](CCc2ccccc2)C(=O)N[C@@H](Cc2ccc(-c3ccccc3)cc2)C(=O)N[C@H](Cc2ccccc2)C(=O)N[C@H](C(=O)N[C@@H](Cc2ccccc2)C(=O)NCS(=O)(=O)O)Cc2ccc(cc2)N1 [Compound 542] ([d(hPhe)][Bip][dF][Phe(4-NH2)]F-NHCH2SO3H; linker N-4 via Suc)
< 10 | O=C(O)CCCNC(=O)[C@H]1Cc2ccc(cc2)OCC(=O)N[C@@H](Cc2c[nH]c3ccccc23)C(=O)N[C@H](Cc2ccc(-c3ccccc3)cc2)C(=O)N[C@@H](Cc2ccccc2F)C(=O)N1 [compound 713]
< 10 | O=C(O)[C@H](Cc1ccccc1)NC(=O)[C@H]1Cc2ccc(cc2)NC(=O)[C@H](O)[C@@H](O)C(=O)N[C@@H](Cc2cccs2)C(=O)N[C@H](Cc2ccc(Br)cc2)C(=O)N[C@@H](CCc2ccccc2)C(=O)N1 [Compound 436]
< 10 | O=C1COc2ccc(cc2)C[C@@H](C(=O)O)NC(=O)[C@H](CCc2ccccc2)NC(=O)[C@@H](Cc2ccc(-c3ccccc3)cc2)NC(=O)[C@H](Cc2ccccc2F)N1 [Compound 677]
< 10 | O=C1COc2ccc(cc2)C[C@@H](C(=O)O)NC(=O)[C@H](CCc2ccccc2)NC(=O)[C@@H](Cc2ccc(-c3ccc(O)cc3)cc2)NC(=O)[C@H](Cc2cccs2)N1 [Compound 656]
< 10 | O=C1COc2ccc(cc2)C[C@@H](C(=O)O)NC(=O)[C@@H](Cc2ccncc2)NC(=O)[C@H](Cc2ccc(-c3ccccc3)cc2)NC(=O)[C@@H](Cc2cccs2)N1 [Compound 536]
